Key:
Type in all cases: biochemical
Pim-1 = Pim-1 (Homo sapiens (Human), UniProt P11309); assay: Pim-1 kinase assay; details: 1 mM ATP; read-out: PIM1 IC50
Procedure: (§1) Pim-1 and Pim-3 kinase assays—20 μL reactions were run in white 384 well polystyrene plates dotted with 0.8 μL compound/DMSO in the assay buffer (50 mM Tris, pH 7.5, 0.01% Tween-20, 5 mM mgCl2, 0.01% BSA, 5 mM DTT), containing 0.05 μM Biotin-labeled BAD peptide substrate (AnaSpec 62269), 1 mM ATP, and 2.5 pM (Pim-1, Invitrogen PV3503) or 1.25 pM (Pim-3, Millipore 14-738) enzyme for 1 h at 25° C. Reactions were stopped by addition of 10 μL STOP Buffer (150 mM Tris, pH=7.5, 150 mM NaCl, 75 mM EDTA, 0.01% Tween-20, 0.3% BSA,) supplemented with Phospho-Bad (Ser112) Antibody (Cell Signaling 9291) diluted 666-fold, and Streptavidin donor beads (PerkinElmer 6760002) along with Protein-A acceptor beads (PerkinElmer 6760137) at […]. Supplementation of the STOP buffer with beads and stopping the reactions were done under reduced light. Prior to the stopping reactions STOP buffer with beads was preincubated for 1 h in the dark at room temperature. After stopping the reactions, plates were incubated for 1 h in the dark at room temperature before reading on a PHERAstar FS plate reader (BMG Labtech) under reduced light.

Pim-2 = Pim-2 (Homo sapiens (Human), UniProt Q9P1W9); assay: Pim-2 kinase assay; details: 1 mM ATP; read-out: PIM2 IC50
Sequence of Pim-2 (Q9P1W9 whole entry): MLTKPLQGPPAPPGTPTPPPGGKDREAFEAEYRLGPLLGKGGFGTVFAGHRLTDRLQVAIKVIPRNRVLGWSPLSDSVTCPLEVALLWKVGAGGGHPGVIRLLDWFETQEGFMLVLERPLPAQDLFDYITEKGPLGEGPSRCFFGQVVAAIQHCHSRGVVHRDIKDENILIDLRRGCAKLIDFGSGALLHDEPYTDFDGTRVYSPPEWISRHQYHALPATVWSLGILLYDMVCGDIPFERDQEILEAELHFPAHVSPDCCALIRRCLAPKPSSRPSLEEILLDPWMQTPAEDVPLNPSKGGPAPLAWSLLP
Procedure: Pim-2 kinase assay—20 μL reactions were run in white 384 well polystyrene plates dotted with 0.8 μL compound/DMSO in the assay buffer (50 mM Tris, pH 7.5, 0.01% Tween-20, 5 mM mgCl2, 0.01% BSA, 5 mM DTT), containing 0.05 μM Fluorescein-labeled CREBtide peptide substrate (Invitrogen PV3508), 1 mM ATP, and 1 nM enzyme (Invitrogen PV3649) for 2 h at 25° C. Reactions were stopped by addition of 10 μL TR-FRET Dilution Buffer (Invitrogen PV3574) with 30 mM EDTA and 1.5 nM LanthaScreen Tb-CREB pSer133 antibody (Invitrogen PV3566). After 30 min. incubation at room temperature, plates were read on a PHERAstar FS plate reader (BMG Labtech).

Pim-3 = Pim-3 (Homo sapiens (Human), UniProt Q86V86); assay: Pim-3 kinase assay; details: 1 mM ATP; read-out: PIM3 IC50
Procedure: as §1

Sequence of Pim-1 (P11309 whole entry): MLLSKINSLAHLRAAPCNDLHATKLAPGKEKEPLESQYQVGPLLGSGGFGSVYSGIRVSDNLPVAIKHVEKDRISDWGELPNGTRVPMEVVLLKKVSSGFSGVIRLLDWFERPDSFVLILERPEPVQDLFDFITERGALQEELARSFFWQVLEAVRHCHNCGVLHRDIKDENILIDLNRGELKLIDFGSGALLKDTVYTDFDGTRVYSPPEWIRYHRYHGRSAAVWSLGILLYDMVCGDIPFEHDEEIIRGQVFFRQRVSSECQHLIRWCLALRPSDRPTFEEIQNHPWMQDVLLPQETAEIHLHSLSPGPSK

Structure (SMILES)	IC50 (Pim-1) [µM]	IC50 (Pim-2) [µM]	IC50 (Pim-3) [µM]
C[C@@H]1C[C@H](N)C[C@H](c2ccncc2NC(=O)c2ccc(F)c3cc(N(C)C4CCC4)cnc23)C1 [Example 24, N-{4-[(1R,3S,5S)-3-Amino-5-methylcyclohexyl]pyridin-3-yl}-3-[cyclobutyl(methyl)amino]-5-fluoroquinoline-8-carboxamide]	≤ 0.01	0.1 to 1	≤ 0.01
C[C@@H]1C[C@H](N)C[C@H](c2ccncc2NC(=O)c2ccc(F)c3cc(N(C)C)cnc23)C1 [Example 25, N-{4-[(1R,3S,5S)-3-Amino-5-methylcyclohexyl]pyridin-3-yl}-3-(dimethylamino)-5-fluoroquinoline-8-carboxamide]	≤ 0.01	≤ 0.1	≤ 0.01
C[C@@H]1C[C@H](N)C[C@H](c2ccncc2NC(=O)c2ccc(F)c3cc(NCCF)cnc23)C1 [Example 26, N-{4-[(1R,3S,5S)-3-Amino-5-methylcyclohexyl]pyridin-3-yl}-5-fluoro-3-[(2-fluoroethyl)amino]quinoline-8-carboxamide]	≤ 0.01	≤ 0.1	≤ 0.01
C[C@@H]1C[C@H](N)C[C@H](c2ccncc2NC(=O)c2ccc(F)c3cc(NCC(F)F)cnc23)C1 [Example 27, N-{4-[(1R,3S,5S)-3-Amino-5-methylcyclohexyl]pyridin-3-yl}-3-[(2,2-difluoroethyl)amino]-5-fluoroquinoline-8-carboxamide]	≤ 0.01	≤ 0.1	≤ 0.01
C[C@@H]1C[C@H](N)C[C@H](c2ccncc2NC(=O)c2ccc(F)c3cc(N4CCCC(F)(F)C4)cnc23)C1 [Example 28, N-{4-[(1R,3S,5S)-3-Amino-5-methylcyclohexyl]pyridin-3-yl}-3-(3,3-difluoropiperidin-1-yl)-5-fluoroquinoline-8-carboxamide]	≤ 0.01	≤ 0.1	≤ 0.01
C[C@@H]1C[C@H](N)C[C@H](c2ccncc2NC(=O)c2ccc(F)c3cc(N4CCN(C)CC4)cnc23)C1 [Example 30, N-{4-[(1R,3S,5S)-3-Amino-5-methylcyclohexyl]pyridin-3-yl}-5-fluoro-3-(4-methylpiperazin-1-yl)quinoline-8-carboxamide]	≤ 0.01	0.1 to 1	≤ 0.01
C[C@@H]1C[C@H](N)C[C@H](c2ccncc2NC(=O)c2ccc(F)c3cc(C4CCOCC4)cnc23)C1 [Example 31, N-{4-[(1R,3S,5S)-3-Amino-5-methylcyclohexyl]pyridin-3-yl}-5-fluoro-3-(tetrahydro-2H-pyran-4-yl)quinoline-8-carboxamide]	≤ 0.01	0.1 to 1	≤ 0.01
C[C@@H]1C[C@H](N)C[C@H](c2ccncc2NC(=O)c2ccc(F)c3cc(N4CCOC[C@H]4C)cnc23)C1 [Example 32, N-(4-((1R,3S,5S)-3-Amino-5-methylcyclohexyl)pyridin-3-yl)-5-fluoro-3-((R)-3-methylmorpholino)quinoline-8-carboxamide]	≤ 0.01	≤ 0.1	≤ 0.01
C[C@@H]1C[C@H](N)C[C@H](c2ccncc2NC(=O)c2ccc(F)c3cc(N4CCOC[C@@H]4C)cnc23)C1 [Example 33, N-(4-((1R,3S,5S)-3-Amino-5-methylcyclohexyl)pyridin-3-yl)-5-fluoro-3-((S)-3-methylmorpholino)quinoline-8-carboxamide]	≤ 0.01	≤ 0.1	≤ 0.01
C[C@@H]1C[C@H](N)C[C@H](c2ccncc2NC(=O)c2ccc(F)c3cc(N4CCC[C@H]4C)cnc23)C1 [Example 34, N-(4-((1R,3S,5S)-3-Amino-5-methylcyclohexyl)pyridin-3-yl)-5-fluoro-3-((R)-2-methylpyrrolidin-1-yl)quinoline-8-carboxamide]	≤ 0.01	≤ 0.1	≤ 0.01
CC1CN(c2cnc3c(C(=O)Nc4cnccc4[C@@H]4C[C@H](C)C[C@H](N)C4)ccc(F)c3c2)C(C)CO1 (stereo partly drawn) [Example 35, N-(4-((1R,3S,5S)-3-Amino-5-methylcyclohexyl)pyridin-3-yl)-3-(2,5-dimethylmorpholino)-5-fluoroquinoline-8-carboxamide]	≤ 0.01	1 to 10	0.01 to 0.05
CC1CCC(C)N1c1cnc2c(C(=O)Nc3cnccc3[C@@H]3C[C@H](C)C[C@H](N)C3)ccc(F)c2c1 (stereo partly drawn) [Example 36, N-(4-((1R,3S,5S)-3-Amino-5-methylcyclohexyl)pyridin-3-yl)-3-(2,5-dimethylpyrrolidin-1-yl)-5-fluoroquinoline-8-carboxamide]	≤ 0.01	0.1 to 1	0.01 to 0.05
CC1CN(c2cnc3c(C(=O)Nc4cnccc4[C@@H]4C[C@H](C)C[C@H](N)C4)ccc(F)c3c2)CC(C)O1 (stereo partly drawn) [Example 37, N-(4-((1R,3S,5S)-3-Amino-5-methylcyclohexyl)pyridin-3-yl)-3-(2,6-dimethylmorpholino)-5-fluoroquinoline-8-carboxamide]	≤ 0.01	1 to 10	0.01 to 0.05
C[C@@H]1C[C@H](N)C[C@H](c2ccncc2NC(=O)c2ccc(F)c3cc(N4CCO[C@@H](C)C4)cnc23)C1 [Example 38, N-(4-((1R,3S,5S)-3-Amino-5-methylcyclohexyl)pyridin-3-yl)-5-fluoro-3-((S)-2-methylmorpholino)quinoline-8-carboxamide]	≤ 0.01	0.1 to 1	0.01 to 0.05
C[C@@H]1C[C@H](N)C[C@H](c2ccncc2NC(=O)c2ccc(F)c3cc(N4CCC[C@@H]4C)cnc23)C1 [Example 39, N-(4-((1R,3S,5S)-3-Amino-5-methylcyclohexyl)pyridin-3-yl)-5-fluoro-3-((S)-2-methylpyrrolidin-1-yl)quinoline-8-carboxamide]	≤ 0.01	≤ 0.1	0.01 to 0.05
C[C@@H]1C[C@H](N)C[C@H](c2ccncc2NC(=O)c2ccc(F)c3cc(N4CCC(F)(F)CC4)cnc23)C1 [Example 40, N-(4-((1R,3S,5S)-3-Amino-5-methylcyclohexyl)pyridin-3-yl)-3-(4,4-difluoropiperidin-1-yl)-5-fluoroquinoline-8-carboxamide]	≤ 0.01	0.1 to 1	≤ 0.01
C[C@@H]1C[C@H](N)C[C@H](c2ccncc2NC(=O)c2ccc(F)c3cc(N4CCC(C)(O)CC4)cnc23)C1 [Example 41, N-(4-((1R,3S,5S)-3-Amino-5-methylcyclohexyl)pyridin-3-yl)-5-fluoro-3-(4-hydroxy-4-methylpiperidin-1-yl)quinoline-8-carboxamide]	0.01 to 0.05	0.1 to 1	0.01 to 0.05
C[C@@H]1C[C@H](N)C[C@H](c2ccncc2NC(=O)c2ccc(F)c3cc(N(C)CC(F)F)cnc23)C1 [Example 42, N-(4-((1R,3S,5S)-3-Amino-5-methylcyclohexyl)pyridin-3-yl)-3-((2,2-difluoroethyl)(methyl)amino)-5-fluoroquinoline-8-carboxamide]	≤ 0.01	≤ 0.1	≤ 0.01
CC1CCCCN1c1cnc2c(C(=O)Nc3cnccc3[C@@H]3C[C@H](C)C[C@H](N)C3)ccc(F)c2c1 (stereo partly drawn) [Example 43, N-(4-((1R,3S,5S)-3-Amino-5-methylcyclohexyl)pyridin-3-yl)-5-fluoro-3-(2-methylpiperidin-1-yl)quinoline-8-carboxamide]	≤ 0.01	≤ 0.1	≤ 0.01
C[C@@H]1C[C@H](N)C[C@H](c2ccncc2NC(=O)c2ccc(F)c3cc(N4CCC(O)CC4)cnc23)C1 [Example 44, N-(4-((1R,3S,5S)-3-Amino-5-methylcyclohexyl)pyridin-3-yl)-5-fluoro-3-(4-hydroxypiperidin-1-yl)quinoline-8-carboxamide]	≤ 0.01	0.1 to 1	≤ 0.01
C[C@@H]1C[C@H](N)C[C@H](c2ccncc2NC(=O)c2ccc(F)c3cc(N4CCC(C#N)CC4)cnc23)C1 [Example 45, N-(4-((1R,3S,5S)-3-Amino-5-methylcyclohexyl)pyridin-3-yl)-3-(4-cyanopiperidin-1-yl)-5-fluoroquinoline-8-carboxamide]	≤ 0.01	0.1 to 1	0.01 to 0.05
CC1CCN(c2cnc3c(C(=O)Nc4cnccc4[C@@H]4C[C@H](C)C[C@H](N)C4)ccc(F)c3c2)CC1 [Example 46, N-(4-((1R,3S,5S)-3-Amino-5-methylcyclohexyl)pyridin-3-yl)-5-fluoro-3-(4-methylpiperidin-1-yl)quinoline-8-carboxamide]	≤ 0.01	0.1 to 1	≤ 0.01

From patent publication US9920032B2, “Heterocyclic compounds useful as pim kinase inhibitors” (Incyte Corporation, priority 2015, dated 2018)
